Experiment [1] has as its target T1, ERβ (Homo sapiens (Human), UniProt Q92731). Kind of experiment: Cell-based ERβ luminescence (luciferase reporter) agonist assay. An excerpt:
(§1) ERα and ERβ assay kits for cell-based assays (Indigo Biosciences) allowed for investigation into the functional activity (i.e. agonist and/or antagonist) of the ligands identified to bind based on the initial fluorescence polarization displacement assay. Briefly, the cells contained a luciferase reporter gene that was functionally linked to either the ERα or ERβ-responsive promoter. By quantifying the luciferase expression via luminescence, the change in ER activity could be quantified. […] For the agonist assay, the cells were prepared by warming to 37° C., plated, then the chemicals added. […] The cells were then plated, and the chemicals added. All plates were incubated in a cell culture incubator at 37° C. and 5% CO2 for 22 h. Each assay was performed in duplicate. Luminescence was characterized after removal of the incubating media and introduction of the Detection Substrate using a Molecular Devices SpectraMax M5 microplate reader. Data was fitted using GraphPad Prism and fit to the dose-response (four parameter) equation as follows.
(Reporter assays use an easily measured gene product as a stand-in for the process of interest.)

The target in experiment [2] is T2, ERα (Homo sapiens (Human), UniProt P03372). As to the kind of experiment: Fluorescence polarization displacement assay (FITC-estradiol tracer). The format is binding. The following applies: for affinity for ERα (qualitative): at concentrations as high as 1 μM; for IC50: read-out: IC50 (ERα affinity, fluorescence polarization displacement assay). Here is the method:
([Tr]) was 10 nM. Sample volume was 150 μL. For each experiment the polarization was calibrated with a sample of FITC set at 20 mP. All proper blanks were used, including water for the FITC samples and blank samples containing only 30 nM ERα protein for the remaining data points.
In general terms: Fluorescence polarisation rises when a labelled molecule tumbles more slowly, as on binding a larger partner.

Experiment [3] has as its target T1, ERβ. Kind of experiment: Cell-based ERβ luminescence antagonist assay (+E2).
From the text: as §1

The target of experiment [4] is T2, ERα. Kind of experiment: Cell-based ERα luminescence (luciferase reporter) agonist assay.
From the text: as §1

Experiment [5] addresses T1, ERβ. As to the kind of experiment: TR-FRET ERβ binding assay. Particulars: TR-FRET tracer displacement. Here is the method: The binding activity of substituted (4′-hydroxyphenyl)cycloalkane compounds was tested using a TR-FRET ERβ binding assay as illustrated in FIG. 12. […] When the tracer used in the assay is bound, then the ratio is high. When the tracer is displaced, the ratio is low. The following compounds were tested.
A general note: In TR-FRET formats the signal depends on donor and acceptor labels being close together.

Experiment [6] has as its target T2, ERα. Kind of experiment: Cell-based ERα luminescence antagonist assay (+E2). Here is the method:
ERα and ERβ assay kits for cell-based assays (Indigo Biosciences) allowed for investigation into the functional activity (i.e. agonist and/or antagonist) of the ligands identified to bind based on the initial fluorescence polarization displacement assay. Briefly, the cells contained a luciferase reporter gene that was functionally linked to either the ERα or ERβ-responsive promoter. By quantifying the luciferase expression via luminescence, the change in ER activity could be quantified. 1-2 mM stocks of the ligands were prepared in d6-DMSO and diluted to final concentrations ranging from 3.2 nM to 2 μM, using the Compound Screening Medium provided in the kit. For the agonist assay, the cells were prepared by warming to 37° C., plated, then the chemicals added. […] The cells were then plated, and the chemicals added. All plates were incubated in a cell culture incubator at 37° C. and 5% CO2 for 22 h. Each assay was performed in duplicate. Luminescence was characterized after removal of the incubating media and introduction of the Detection Substrate using a Molecular Devices SpectraMax M5 microplate reader. Data was fitted using GraphPad Prism and fit to the dose-response (four parameter) equation as follows.

The mark [7] stands for this setting: fluorescence polarization displacement.
Where [8] appears, read: 160 pM E2 added, read-out: ERβ antagonist IC50.
[9] abbreviates: normalized, read-out: ERα Normalized Agonist.
Where [10] appears, read: normalized, read-out: ERβ Agonist normalized.

Consider 14 molecules from US10570077B2, “Substituted (4'-hydroxyphenyl)cyclohexane compounds and uses thereof as selective agonists of the estrogen receptor beta isoform” (Marquette University, priority 2013, dated 2020).

Where “and” joins values, the source holds several entries; their conditions need not be identical. Identical values can stand only once. Like-named read-outs stand apart in the source and are kept apart here.

The Kd is the constant that tells how readily two partners part at equilibrium.

T2 sequence (P03372 whole entry): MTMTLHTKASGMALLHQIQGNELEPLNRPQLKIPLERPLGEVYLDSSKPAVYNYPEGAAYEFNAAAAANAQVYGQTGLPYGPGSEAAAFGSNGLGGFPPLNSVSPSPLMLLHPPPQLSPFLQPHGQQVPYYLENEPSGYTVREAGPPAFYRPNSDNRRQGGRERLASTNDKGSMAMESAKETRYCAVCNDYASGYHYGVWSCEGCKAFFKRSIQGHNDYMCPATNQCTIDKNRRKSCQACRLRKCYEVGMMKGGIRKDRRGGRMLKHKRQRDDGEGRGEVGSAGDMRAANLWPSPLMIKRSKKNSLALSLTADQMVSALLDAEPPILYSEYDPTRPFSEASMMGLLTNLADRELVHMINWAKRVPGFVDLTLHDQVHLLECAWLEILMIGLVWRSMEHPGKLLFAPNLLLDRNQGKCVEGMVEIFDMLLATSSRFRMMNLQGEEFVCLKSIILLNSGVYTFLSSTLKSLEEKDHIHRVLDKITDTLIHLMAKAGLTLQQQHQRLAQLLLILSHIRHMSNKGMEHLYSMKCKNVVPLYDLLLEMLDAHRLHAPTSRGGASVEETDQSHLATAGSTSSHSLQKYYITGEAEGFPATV
T1 sequence (Q92731 whole entry): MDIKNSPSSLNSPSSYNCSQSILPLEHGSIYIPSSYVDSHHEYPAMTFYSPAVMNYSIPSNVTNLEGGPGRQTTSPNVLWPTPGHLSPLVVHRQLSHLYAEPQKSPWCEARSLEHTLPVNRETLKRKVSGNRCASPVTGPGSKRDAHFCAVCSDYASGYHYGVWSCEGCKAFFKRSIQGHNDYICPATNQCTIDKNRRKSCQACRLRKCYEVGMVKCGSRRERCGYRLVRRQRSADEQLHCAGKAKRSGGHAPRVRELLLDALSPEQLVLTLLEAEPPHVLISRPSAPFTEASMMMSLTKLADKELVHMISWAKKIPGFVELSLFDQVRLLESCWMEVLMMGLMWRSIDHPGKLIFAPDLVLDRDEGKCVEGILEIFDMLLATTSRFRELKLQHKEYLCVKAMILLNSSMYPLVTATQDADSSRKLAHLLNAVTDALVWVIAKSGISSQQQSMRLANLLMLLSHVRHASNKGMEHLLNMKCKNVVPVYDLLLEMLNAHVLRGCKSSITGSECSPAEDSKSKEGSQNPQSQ

As to `OC[C@H]1CCC[C@@H](c2ccc(O)cc2)CC1` (racemic) [Compound 18, cis-1-Hydroxymethyl-4-(4′-hydroxyphenyl)-cycloheptane], the results for the IC50 in experiment [1] and in experiment [3] (read-out: ERβ antagonist IC50) were 5.4 ± 0.3 nM and 137 ± 100 nM, respectively. Besides, the Kd in experiment [2] (accurate Kd could not be obtained, estimated) was > 1000 nM.

`OC[C@H]1CCC[C@@H](c2ccc(O)cc2)CC1` (relative stereo) [Compound 18, cis-1-Hydroxymethyl-4-(4′-hydroxyphenyl)-cycloheptane]: in experiment [2], the “affinity for ERα (qualitative)” value is given as “significant affinity”. In experiment [3], the “ERβ antagonist activity (qualitative)” value was “ERβ antagonist activity”.

For `C[C@]12CC[C@@H]3c4ccc(O)cc4CC[C@H]3[C@@H]1CC=C2CO` [Compound 2, 3-Hydroxvestra-1,3,5(10),16-tetraene-17-methanol], the IC50 in experiment [1] was found to be 6.8 ± 0.2 nM. In experiment [3], the “ERβ antagonist activity (qualitative)” value was “not ERβ antagonists”. Besides, the “ERα agonist activity (qualitative)” value in experiment [4] was “agonist activity”.

In the case of `CCCOC(=O)C1CC[C@H]2[C@@H]3CCc4cc(O)ccc4[C@H]3CC[C@]12C` (some centres unmarked) [Compound 4, n-Propyl 3-hydroxyestra-1,3,5(10)-triene-17-carboxylate], the IC50 in experiment [1] was 9.8 ± 2 nM; in experiment [2] it was 160 to 320 nM; in experiment [4], 92 ± 1 nM. This molecule also displayed a Kd in experiment [2] (setting [7]) of 320 ± 40 nM.

As to `CC[C@H](C)C1=CC[C@H]2[C@@H]3CCc4cc(O)ccc4[C@H]3CC[C@]12C` [Compound 7, (20S) 3-Hydroxy-19,24-dinorchola-1,3,5(10),16-tetraene], the IC50 in experiment [1] is 88 ± 9 nM; in experiment [2] it was 160 to 320 nM; in experiment [3] (setting [8]), 70 ± 15 nM. The “affinity for ERα (qualitative)” value in experiment [2] is “significant affinity”. Further, the Kd in experiment [2] (setting [7]) is 160 ± 10 nM. Further, the “ERβ antagonist activity (qualitative)” value in experiment [3] is on record as “ERβ antagonist activity”.

Turning to `C[C@@H](CCO)C1=CC[C@H]2[C@@H]3CCc4cc(O)ccc4[C@H]3CC[C@]12C` [Compound 11, (20S) 3-Hydroxy-19,24-Dinorchola-1,3,5(10),16-tetraen-23-ol], the IC50 in experiment [1] came out at 108 ± 67 nM; in experiment [3] (setting [8]) it was 275 ± 40 nM. In addition, the “affinity for ERα (qualitative)” value in experiment [2] is listed as “significant affinity”. The Kd in experiment [2] (setting [7]) worked out at 320 ± 40 nM. Also, the “ERβ antagonist activity (qualitative)” value in experiment [3] is given as “ERβ antagonist activity”.

`CC1C[C@H](C)C2(CC[C@H]3[C@@H]4CCc5cc(O)ccc5[C@H]4CC[C@@]32C)O1` (some centres unmarked) [Compound 13, 17,23-Epoxy-3-hydroxy-19-norchola-1,3,5(10)-triene] came in with an IC50 in experiment [1] of 111 ± 26 nM. Also, the “affinity for ERα (qualitative)” value in experiment [2] is “significant affinity”. Besides, the affinity in experiment [2] (setting [7]), expressed as Kd, was 160 ± 10 nM. The “ERβ antagonist activity (qualitative)” value in experiment [3] is reported as “not ERβ antagonists”. In experiment [4], the “ERα agonist activity (qualitative)” value is “agonist activity” and the IC50 stood at 484 ± 1 nM.

As to `OCC1CCC[C@@H](c2ccc(O)cc2)CC1` (some centres unmarked) [ISP-163], the IC50 is 23.5 ± 8 nM in experiment [5], > 10 µM in experiment [6] and > 100000 nM in experiment [3]. Further, the EC50 in experiment [1] (read-out: ERβ Agonist) is 30 nM and 33 nM; in experiment [4] (setting [9]), 10.5 ± 0.2 µM; in experiment [4] (read-out: ERα Agonist), > 10 µM.

In the case of `O/N=C1/CCCC(c2ccc(O)cc2)CC1` (centres unmarked) [ISP-166], the values for the EC50 in experiment [1] (read-out: ERβ Agonist), in experiment [4] (setting [9]) and in experiment [4] (read-out: ERα Agonist) were 731 ± 85 nM, 350 ± 250 µM and > 10 µM, respectively. The IC50 in experiment [6] was > 10 µM; in experiment [3] it was > 10000 nM.

Regarding `OCC1CCC(c2ccc(O)cc2)CC1` (centres unmarked) [ISP-171], in experiment [6], the IC50 was > 10 µM. Moreover, the EC50 in experiment [4] (setting [9]) was 700 ± 80 µM; in experiment [4] (read-out: ERα Agonist), > 10 µM.

Turning to `OCCC1CCCC(c2ccc(O)cc2)CC1` (centres unmarked) [ISP-248], the IC50 was 36.8 ± 9.2 nM in experiment [5], > 10 µM in experiment [6] and > 10000 nM in experiment [3]. Also, the EC50 in experiment [1] (setting [10]) is 104 nM; in experiment [1] (read-out: ERβ Agonist), 142 ± 17 nM; in experiment [4] (setting [9]), 45 ± 17 µM; in experiment [4] (read-out: ERα Agonist), > 10 µM.

`OC[C@H]1C=CCC(c2ccc(O)cc2)C=C1` (some centres unmarked) [RKP-35c] displayed an IC50 in experiment [5] of 378 ± 97 nM.

Turning to `OCC=C1CCC(c2ccc(O)cc2)CC1` (centres unmarked) [RKP-228], in experiment [5], the IC50 came to 521 ± 87 nM.

For `CCC1CCC(c2ccc(O)cc2)CC1` (centres unmarked) [RKP-231 IF], the IC50 was 15.2 ± 1.5 nM in experiment [5]; > 10 µM in experiment [6] (read-out: ERα Antagonist (+E2), +E2); > 10000 nM in experiment [3] (read-out: ERβ Antagonist (+E2), +E2). Besides, the EC50 in experiment [1] (setting [10]) is 89 nM; in experiment [1] (read-out: ERβ Agonist), 93 ± 7 nM; in experiment [4] (setting [9]) it was 25 ± 1.3 µM; in experiment [4] (read-out: ERα Agonist) it was > 10 µM.
